Data on 1 substance can be found in patent US9034826B2, “Use of epidermal growth factor for the morphofunctional restoration of peripheral nerves in diabetic neuropathy” (Centro de Ingenieria Genetica y Biotecnologia, priority 2006, dated 2015).

The test system of assay [1] is sciatic nerve. As to the kind of experiment: Histomorphometric study on fragments of the sciatic nerve, prevention study (Example 1). Type of assay: in vivo, Wistar rats. As to conditions: day 70 after induction of diabetes; for Number of blood vessels: 10 microscopic fields. The method, then:
Male Wistar, with 200-250 grams of body weight, received a subcutaneous injection of streptozotocin, at 75 mg/kg in sodium citrate buffer. Water was then replaced by a 10% sucrose solution during the next 24 h, to prevent deaths caused by hypoglycemia. Glucose levels in blood were monitored every morning during the next 72 hours after the injection. Only animals with sustained glucose values above 15 mmol/L were used. Rats were housing at 4 per cage and fed in the conventional way. A concurrent group of other 80 rats received citrate buffer without streptozotocin and was handled in a similar fashion to the diabetic group. The average value for glycemia during the 72 hours in this group was 5.87 mmol/L.
All treatments were conducted during 8 weeks, starting one week after streptozotocin injection. The composition used contained 75 μg of human recombinant EGF/ml. Several types of observations were conducted in the animals under study:
Once the treatment was concluded, animals were sacrificed at day 70 after induction of diabetes, 10 days after the last dose was given, and the analysis described above is was completed. Animals were sacrificed by an overdose of anesthesia and perfused with saline buffer pH 7.4. A total of ten animals per experimental group were included for histomorphometric studies, and an equivalent number of rats were used for biochemical determinations. In both systems the sciatic nerves from both limbs were dissected; fragments were kept at −70° C. until processed. The samples taken for histological and/or histomorphometric studies were stained with hematoxilin/eosin and toluidine blue. At least five fragments of the same nerve were quantitatively studied using MADIP program. The fragments were included in blocks of celloidine and gelatin, and those blocks were horizontal and transversally sliced. The following histological indicators were evaluated: • Total number of blood vessels (in epineural/perineural) in 10 microscopic fields using 10× as constant magnification in longitudinal cuts of the nerve. • Percentage of demyelinated fibers. Evaluated by averaging the values per microscopic field (×20, at least five fields). • Percentage of myelin or non-myelin fibers with lesions (dilated or distorted) per microscopic field (×20, at least five fields). • Percentage of endoneurial collagenization (moderated: 25 to 50%; severe: more than 50% of the endoneurial area in transversal slices, and at least three different sections.

Assay [2] relates to right sciatic nerve. As to the kind of experiment: Laser Doppler Perfusion Imaging of blood perfusion of a peripheral nerve, reversion study (Example 2). Type of assay: in vivo, Wistar rats. As to conditions: established diabetic neuropathy, 100 μg EGF in 1 ml i.p. 3 days a week for one month. The source says: The right sciatic nerve of rats was used as a model. Ten animals were included for each one of the experimental groups. A similar number of non diabetic rats were used to calculate the reference values. A Laser Doppler Perfusion Imaging (LDPI) system was used. Data of perfusion in peripheral tissues to the nerve were programmed as zero values. Control animals received saline during two months before the measurement. All determinations were done under the same conditions of anesthesia and environmental conditions. They are reflected in Table 5. The aim of this study was to evaluate the neurorestoration effect of the pharmaceutical composition. Male Wistar rats between 200-250 grams of body is weight received a subcutaneous injection of streptozotocin at 75 mg/kg in sodium citrate buffer, and were allowed to evolve until 120 days after disease induction. All rats used in this experiment had shown sustained glucose levels above 15 mmol/L. Animals were handled and fed as previously described. A concurrent control group was set, where animals received saline instead of streptozotocin. […] After this period an electrophysiological characterization of all rats were done and animals were split in two random treatment groups: Group II. Animals received the pharmaceutical composition with 100 μg of EGF in 1 ml, 3 days a week, by intraperitoneal route. […]

Assay [3] concerns sciatic nerve. As to the kind of experiment: Histomorphometric study on fragments of the sciatic nerve, reversion study (Example 2). The class given is in vivo, Wistar rats. The following applies: established diabetic neuropathy, 100 μg EGF in 1 ml i.p. 3 days a week, evaluation after 30 days. The method, then:
The aim of this study was to evaluate the neurorestoration effect of the pharmaceutical composition. Male Wistar rats between 200-250 grams of body is weight received a subcutaneous injection of streptozotocin at 75 mg/kg in sodium citrate buffer, and were allowed to evolve until 120 days after disease induction. All rats used in this experiment had shown sustained glucose levels above 15 mmol/L. Animals were handled and fed as previously described. A concurrent control group was set, where animals received saline instead of streptozotocin. […] After this period an electrophysiological characterization of all rats were done and animals were split in two random treatment groups:
Group II. Animals received the pharmaceutical composition with 100 μg of EGF in 1 ml, 3 days a week, by intraperitoneal route.
One month after conclusion of the treatment with either EGF containing composition or saline, and […] after disease induction, animals were sacrificed by an overdose of anesthesia and perfused with saline buffer pH 7.4. A total of ten animals per experimental group were included for histomorphometric studies, and an equivalent number of rats were used for biochemical determinations. In both systems the sciatic nerves from both limbs were dissected. The procedures were similar to those described for the neuropathic damage prevention assay. Samples taken for histological and o histomorphometric studies were stained with hematoxilin/eosin and toluidine blue. At least five fragments of the same nerve were quantitatively studied using MADIP program. The fragments were included in OCT blocks, post-fixed with glutaraldehyde, and sliced horizontal and transversally. The histological indicators assessed have been described above as well as the procedures used for the processing and evaluation: • Total number of blood vessels (in epineural/perineural) in 10 microscopic fields using 10× as constant magnification in longitudinal cuts of the nerve. • Percentage of demyelinated fibers. Evaluated by averaging the values per microscopic field (×20, at least five fields). • Percentage of myelin or non-myelin fibers with lesions (dilated or distorted) per microscopic field (×20, at least five fields). • Percentage of endoneurial collagenization (moderated: 25 to 50%; severe: more than 50% of the endoneurial area in transversal slices, and at least three different sections.

The test system of assay [4] is diabetic animals. Nature of the assay: Findings in diabetic animals after injection or infiltration of the composition (summary). The class given is in vivo. As to conditions: after three systemic injections or local infiltrations at the periphery of the nerve trunks.
[5] abbreviates: Treatment group 1 (once weekly i.p., 8 weeks).
[6] abbreviates: Treatment group 3 (three times a week i.p., 8 weeks).

Consider “EGF containing pharmaceutical composition: Composition with human recombinant EGF: 75 μg/ml in Example 1, 100 μg in 1 ml in Example 2, given intraperitoneally”, for which, in assay [1] (setting [5]), the “Number of blood vessels” value worked out at 111.33 ± 14.5, the “% of collagenized area” value came to 42.69 ± 14.71%, the “% of demyelinated fibers” value came out at 51.2 ± 17.94% and the “% of fibers with lesions” value came to 60.12 ± 11%. Moreover, in assay [1] (setting [6]), the “Number of blood vessels” value turned out to be 158.6 ± 26.12, the “% of collagenized area” value is recorded as 13.45 ± 11.82%, the “% of demyelinated fibers” value came to 35.56 ± 12.18% and the “% of fibers with lesions” value is 41.38 ± 10.26%. Besides, in assay [2], the “Laser Doppler perfusion of the sciatic nerve” value worked out at 934 ± 60.18 LDPI Units. Moreover, in assay [3], the “% of collagenized area” value came to 46.3 ± 9.5%, the “% of demyelinated fibers” value is 50.6 ± 12.3% and the “% of fibers with lesions” value stood at 52.6 ± 8.3%. Further, the “No. of blood vessels” value in assay [3] (10 microscopic fields) worked out at 86.5 ± 14.6. In addition, in assay [4], the Axon edema result is “Reductions in axon edema”, the Axonal neurofilaments result is given as “Preservation of axonal neurofilaments”, the “Conduction velocity of motor fibers” value was “Normalization of conduction velocity of motor fibers” and the Endoneurial collagenization entry is listed as “Diminution of endoneurial collagenization”. Also, in assay [4], the “Integrity of the myelin sheath of the sciatic nerve” value was “Improvement in the integrity of the myelin sheath of the sciatic nerve” and the Vasa nervorum entry is “Integrity of the vasa nervorum”.
